Results as given in PMC12586598, “A novel long-acting C5a-blocking cyclic peptide prevents sepsis-induced organ dysfunction via effective blockade of the inflammatory cascade” (Signal Transduction and Targeted Therapy, 2025).
Where a SMILES comes first, the peptide text is derived from it.

Assays:
[1] = molecular target: T1, mouse C5 (Mus musculus, UniProt P06684); assay: SPR binding affinity assay, immobilized mouse C5
T1 construct: purchased ACROBiosystems
Description: Surface plasmon resonance (SPR) analysis was conducted using Biacore 2000 system (GE Healthcare, Germany) at 37°C in running buffer (20 mM Tris-HCl, pH 7.4, 150 mM NaCl, 5 mM KCl, 1 mM MgCl₂, 1 mM CaCl₂). The CM5 sensor chips (GE Healthcare) were activated with NHS/EDC, followed by immobilization of mouse C5a (ACROBiosystems, Beijing, China), human C5a (ACROBiosystems, Beijing, China), mouse C5 (ACROBiosystems, Beijing, China) or mouse C5a-desArg (MCE, Shanghai, China). The peptide-protein interactions were characterized using a concentration-gradient approach (low to high) with a continuous flow rate of 30 μL/min (150 s injection duration). Between analyte concentrations, the sensor surface was regenerated with 10 mM glycine-HCl (pH 2.0; 5 min treatment). Binding and dissociation constants were obtained by globally fitting the data to a 1:1 Langmuir binding model using a Biacore Insight evaluation software (Cytiva, USA).

[2] = molecular target: T2, Cy5-labeled mouse C5a protein (Mus musculus, UniProt P06684); assay: Competitive binding assay by FCM (Cy5-C5a on mouse neutrophils); type: cell-based; details: high (1 μg/mL) or low (10 ng/mL) concentrations
T2 construct: 10 ng of Cy5-labeled mouse C5a protein (MCE, Shanghai, China); purchased MCE; host or cells: mouse peripheral blood neutrophils (endogenous receptor)
T2 sequence (P06684 679-755): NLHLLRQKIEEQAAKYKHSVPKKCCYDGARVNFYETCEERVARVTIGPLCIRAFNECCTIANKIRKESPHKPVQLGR
Description: For the validation of peptide affinity for C5a. Peripheral blood neutrophils from the mice were isolated via density gradient centrifugation (Solarbio P9201, Beijing, China). A total of 10 ng of Cy5-labeled mouse C5a protein (MCE, Shanghai, China) was preincubated with linear peptides or cyclic peptides (10 or 100 ng) at room temperature for 0.5 h. Subsequently, 2×10^5 mouse neutrophils were incubated with Cy5-labeled mouse C5a or Cy5-labeled mouse C5a/peptide complexes at 4 °C for 0.5 h in the dark, followed by centrifugation, washing with PBS and flow cytometric analysis (Sony ID7000™, Japan).

[3] = tested on: mouse neutrophils; assay: C5a-triggered chemotaxis assay, mouse neutrophils (IncuCyte); type: cell-based; details: 10 ng to 1 μg per well, 24 h
Description: The chemotaxis assay in this study was monitored and quantified by the IncuCyte ZOOM® Live-Cell Imaging System. The y-axis label “total area normalized to initial area in each group” in Fig. 3k, m represent the ratio of the total cell area at each time point to the initial area (0 h) within the same field of view. A higher ratio indicates […] cell migration activity.
One hundred nanograms of human C5a protein (ACROBiosystems, Beijing, China) was preincubated with linear or cyclic peptides at the indicated concentrations (10 ng, 100 ng, or 1 μg) in 1640 complete culture medium for 30 min. PMNs isolated by flow cytometric sorting for chemotaxis assays were purchased from Oribiotech Co., Ltd. (Shanghai, China). A total of 1 × 10^4 cells were added to the upper chamber of 96-well cell chemotaxis plates (Sartorius, Germany) and allowed to migrate at 37 °C for 24 h. The chemotactic response of neutrophils toward C5a with or without C5a-blocking peptides was quantified and analyzed via an IncuCyte ZOOM® Live-Cell Imaging System (Sartorius, Germany). The chemotactic response of mouse neutrophils was assessed following the established protocol for PMNs.

[4] = tested on: CLP-treated mice; assay: Response to secondary infection, short-term exposure: LPS stimulation of whole blood; type: in vivo, mouse; details: blood taken 24 h post-CLP surgery, 1 μg LPS
Description: To evaluate the impact of short-term (24 h) drug exposure on the secondary infection response. Whole blood samples were collected from each group at 24 h post-CLP surgery and stimulated with 1 μg of LPS. The IL-6 levels at 0 h, 2 h, and 4 h poststimulation were quantified via an ELISA kit.

[5] = tested on: CLP-induced septic mice; assay: Endothelial injury biomarkers and capillary leakage in CLP mice; type: in vivo, mouse; details: 24 h post-CLP surgery
Description: To evaluate microvascular leakage in the murine abdominal cavity, the mice received 100 μg of Cp1 via intravenous administration one hour after CLP surgery. Subsequently, 200 μL of 0.25% (w/v) Evans blue dye was injected intravenously for permeability quantification. Twenty-four hours later, the plasma and peritoneal lavage fluid (PLF) of the mice were collected and subjected to spectrophotometric measurement at 620 nm. To exclude hemoglobin interference, the serum absorbance values were corrected via the following formula: corrected A620 = A620 − (A405 × 0.014).[40] Vascular permeability was quantified by the A620 ratio of PLF to serum. To assess capillary leakage in pulmonary tissues, human plasma albumin (HSA) (1 mg/75 μL) was injected intravenously after CLP surgery and Cp1 administration. Twenty-four hours later, the HSA in the bronchoalveolar lavage fluid (BALF) and plasma samples was quantified via a HAS ELISA Kit (Cusabio, Wuhan), and the lung permeability index was calculated as the ratio of the HAS in the BALF to that in the plasma.
The cecal ligation and puncture (CLP) model was established in male C57BL/6 mice (9-10 weeks old). Briefly, a midline laparotomy was performed to exteriorize the cecum under general anesthesia. The cecum was ligated at the distal three-quarters using sutures. Subsequently, a single through-and-through puncture was made in the ligated segment using a 22-gaμge needle, followed by small volume of fecal content was gentle extrusion. The cecum was then repositioned within abdominal cavity, and the laparotomy incision was closed in layers. All animals were administered 1 mL of sterile saline for postoperative fluid resuscitation. Sham-operated controls underwent identical surgical procedures without cecal ligation or puncture. In this work, mice received administration via intravenous injection 1 hour after CLP surgery. The animal mortality was determined by the presence of confirmed death. […] Blood samples were collected 24 hours after CLP-modeling for hematological analysis (Mindray BC-60R Vet) and biochemical analysis (Mindray BS-240 Vet, China), endothelial injury analysis (Njjcbio, Nanjing) and coagulation analysis (Legene, Beijing). Subsequently, mice were sacrificed to collect the main organs for morphological and pathological analysis.

[6] = tested on: CLP-induced septic mice; assay: Bacterial burden in blood (CFU) of CLP mice; type: in vivo, mouse
Description: Whole blood samples were aseptically dropped onto nutrient agar plates. Glass beads were added, and the samples were rocked horizontally to ensure the uniform distribution of blood samples. The inoculated plates were incubated at 37 °C for 24 h, after which colony-forming units (CFUs) were counted. The colonies on the culture plates were counted via ProtoCOL 3 HD (Synbiosis, UK).

T1 sequence (P06684 19-1680): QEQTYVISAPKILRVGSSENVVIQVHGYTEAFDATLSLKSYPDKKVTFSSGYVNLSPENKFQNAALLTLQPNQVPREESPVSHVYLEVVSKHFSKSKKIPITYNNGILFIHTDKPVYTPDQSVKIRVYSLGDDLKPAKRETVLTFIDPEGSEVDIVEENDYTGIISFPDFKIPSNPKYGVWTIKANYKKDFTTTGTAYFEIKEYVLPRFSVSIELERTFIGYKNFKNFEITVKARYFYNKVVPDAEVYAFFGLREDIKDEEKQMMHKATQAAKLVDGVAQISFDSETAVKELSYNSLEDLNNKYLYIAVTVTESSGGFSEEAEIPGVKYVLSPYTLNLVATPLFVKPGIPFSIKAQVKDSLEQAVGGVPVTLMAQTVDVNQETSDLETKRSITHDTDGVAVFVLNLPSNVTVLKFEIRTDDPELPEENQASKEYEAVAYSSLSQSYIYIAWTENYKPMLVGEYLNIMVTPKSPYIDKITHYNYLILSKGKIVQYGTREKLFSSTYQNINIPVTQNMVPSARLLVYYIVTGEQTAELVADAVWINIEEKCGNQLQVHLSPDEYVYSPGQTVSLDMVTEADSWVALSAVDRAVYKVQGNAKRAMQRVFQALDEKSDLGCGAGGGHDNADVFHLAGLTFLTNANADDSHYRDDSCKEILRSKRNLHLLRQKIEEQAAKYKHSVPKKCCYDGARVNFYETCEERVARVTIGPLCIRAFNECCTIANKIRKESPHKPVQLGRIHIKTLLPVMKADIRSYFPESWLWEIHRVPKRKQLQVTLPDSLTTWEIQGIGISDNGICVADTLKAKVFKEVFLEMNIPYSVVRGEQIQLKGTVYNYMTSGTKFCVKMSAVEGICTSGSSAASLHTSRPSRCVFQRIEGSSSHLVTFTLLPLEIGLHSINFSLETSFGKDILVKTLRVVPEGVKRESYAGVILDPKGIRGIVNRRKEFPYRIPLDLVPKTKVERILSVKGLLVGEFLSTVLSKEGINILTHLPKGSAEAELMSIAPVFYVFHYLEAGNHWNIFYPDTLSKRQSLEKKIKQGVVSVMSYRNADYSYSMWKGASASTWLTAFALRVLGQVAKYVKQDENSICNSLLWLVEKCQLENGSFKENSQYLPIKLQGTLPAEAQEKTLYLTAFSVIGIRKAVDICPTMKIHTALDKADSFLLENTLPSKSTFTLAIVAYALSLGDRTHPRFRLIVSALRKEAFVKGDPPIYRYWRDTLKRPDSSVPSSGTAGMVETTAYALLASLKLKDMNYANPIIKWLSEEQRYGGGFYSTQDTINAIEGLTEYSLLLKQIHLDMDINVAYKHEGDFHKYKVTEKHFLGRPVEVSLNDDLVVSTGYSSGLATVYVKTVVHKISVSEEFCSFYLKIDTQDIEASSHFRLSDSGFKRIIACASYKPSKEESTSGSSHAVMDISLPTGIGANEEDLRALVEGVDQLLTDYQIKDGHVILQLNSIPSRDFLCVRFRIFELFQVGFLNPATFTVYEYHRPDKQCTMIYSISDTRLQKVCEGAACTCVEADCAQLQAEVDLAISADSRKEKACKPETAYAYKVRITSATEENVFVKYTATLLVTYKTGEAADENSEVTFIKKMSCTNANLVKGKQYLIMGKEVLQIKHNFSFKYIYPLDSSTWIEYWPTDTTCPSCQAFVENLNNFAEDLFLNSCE

SMILES: CSCC[C@@H]1NC(=O)[C@@H]2CCCN2C(=O)[C@H](CCSC)NC(=O)[C@H](CO)NC(=O)[C@H](Cc2c[nH]cn2)NC(=O)CNC(=O)[C@H](CO)NC(=O)[C@H](Cc2ccccc2)NC(=O)[C@H](CCCNC(=N)N)NC(=O)[C@H](CCC(=O)O)NC(=O)[C@H](Cc2ccccc2)NC(=O)[C@H](C(C)C)NC1=O [Cp1] (cyclo(HSMPMVFERFSG))
- kon ([1]; pH 7.4, read-out: Ka vs mC5 (SPR)): 105000 M⁻¹ s⁻¹
- koff ([1]; read-out: Kd (dissociation rate) vs mC5 (SPR)): 0.0745 s⁻¹
- blockade of Cy5-C5a binding to mouse neutrophils [2]: validated the blocking efficacy
- suppression of C5a-driven recruitment of mouse neutrophils [3]: dose-dependently suppressed
- IL-6 level at 2 h post-LPS stimulation vs CLP control group [4]: obviously increased IL-6 levels
- decrease of circulating E-selectin vs CLP group ([5]; 100 μg/20 g): 71%
- decrease of circulating PAI-1 vs CLP group ([5]; 100 μg/20 g): 93%
- decrease of circulating VCAM-1 vs CLP group ([5]; 100 μg/20 g): 100%
- decrease of Evans blue leakage (PLF/Serum) ([5]; vs untreated CLP group): 54%
- decrease of HAS leakage (BALF/Serum) ([5]; vs untreated CLP group): 83%
- reduction in lung wet-to-dry weight ratio (W/D ratio) ([5]; vs untreated CLP group): 85%
- reduction of bacterial burden (CFUs/mL in blood) vs CLP ([6]; 100 μg Cp1, 24 h post-CLP): 93%
- reduction of bacterial burden (CFUs/mL in blood) vs CLP ([6]; 300 μg Cp1, 24 h post-CLP): 86%
